These are literature values, as cited in US20110245183A1, “Topical Uses of Szeto-Schiller Peptides” (priority 2010, published 2011).

Series [1] has as its system isolated mitochondria. As to conditions: MPP+ (1-methyl-4-phenylpyridium).
For series [2], the system named is LDL.
The test system of series [3] is Parkinson's Disease (PD) or Amyotrophic Lateral Sclerosis (ALS). The following applies: mice studies.

Where no end group is shown, it is not given here. [ ]: non-standard residue; d: D form. Dmt = Cc1cc(O)cc(C)c1C[C@H](N)C(=O)O

For the substance “D-Arg-2′,6′-Dmt-Lys-Phe-NH2 ([dR][Dmt]KF-NH2) [SS-31]”, in series [1], the “MPP+-induced inhibition of ATP production” value is recorded as “prevented”, the “MPP+-induced inhibition of oxygen consumption” value is listed as “prevented” and the “MPP+-induced mitochondrial swelling” value is on record as “prevented”. The “inhibiting LDL oxidation” value in series [2] is “as effective as SS-02”. In addition, the “effectiveness in the treatment of Parkinson's Disease (PD) or Amyotrophic Lateral Sclerosis (ALS)” value in series [3] is recorded as “may be effective”.
For the substance “Phe-D-Arg-Phe-Lys-NH2 (F[dR]FK-NH2; N-terminus assumed; SMILES N=C(N)NCCC[C@@H](NC(=O)[C@@H](N)Cc1ccccc1)C(=O)N[C@@H](Cc1ccccc1)C(=O)N[C@@H](CCCCN)C(N)=O) [SS-20]”, in series [1], the “MPP+-induced inhibition of ATP production” value is on record as “prevented”, the “MPP+-induced inhibition of oxygen consumption” value is on record as “prevented” and the “MPP+-induced mitochondrial swelling” value was “prevented”. In addition, the “effectiveness in the treatment of Parkinson's Disease (PD) or Amyotrophic Lateral Sclerosis (ALS)” value in series [3] is reported as “may be effective”.
